From US12686846B2, “Plant sweet and yeast MSF transporter capable of transporting different sugars simultaneously” (THE BOARD OF TRUSTEES OF THE UNIVERSITY OF ILLINOIS, priority 2020, dated 2026)
“Also recorded” adds a separate entry of the source.

Experiments:
[1] = biological target: T1, Saccharomyces cerevisiae ScGal2 (Gal2) transporter, SEQ ID NO:32 (Saccharomyces cerevisiae, UniProt P13181); assay: C14 labeled sugar uptake assay (zero-trans influx), SR8D8 expressing ScGal2; assay type: cell-based; details: initial glucose uptake (5 s), 30° C., pH 6.5
T1 construct: expressed in transfected cells; host or cells: S. cerevisiae SR8D8 (SR8 with HXT1-7 and GAL2 deleted), plasmid p42K-GPD1p-CYC1t
T1 sequence (P13181 1-574): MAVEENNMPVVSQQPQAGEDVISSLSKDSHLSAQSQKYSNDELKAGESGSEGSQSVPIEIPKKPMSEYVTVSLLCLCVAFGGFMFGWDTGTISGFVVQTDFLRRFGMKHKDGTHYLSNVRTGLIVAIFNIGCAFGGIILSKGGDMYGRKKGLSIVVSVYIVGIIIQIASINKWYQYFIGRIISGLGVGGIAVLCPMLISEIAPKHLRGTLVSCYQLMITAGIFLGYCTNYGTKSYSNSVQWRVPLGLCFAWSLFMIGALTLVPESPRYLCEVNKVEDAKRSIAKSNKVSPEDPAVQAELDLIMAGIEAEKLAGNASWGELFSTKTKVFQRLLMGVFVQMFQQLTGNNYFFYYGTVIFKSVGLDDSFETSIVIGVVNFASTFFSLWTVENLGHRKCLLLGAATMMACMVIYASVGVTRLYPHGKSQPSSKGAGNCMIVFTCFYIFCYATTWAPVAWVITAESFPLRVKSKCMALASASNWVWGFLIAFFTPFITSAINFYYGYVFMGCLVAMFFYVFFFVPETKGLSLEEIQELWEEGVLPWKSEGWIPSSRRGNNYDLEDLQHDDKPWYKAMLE
Description: FIG. 7A illustrates sugar uptake kinetics by SR8D8. FIG. 7B illustrates sugar uptake kinetics by SR8D8 expressing AtSWEET1. FIG. 7C illustrates sugar uptake kinetics by SR8D8 expressing ScGal2. FIG. 7D illustrates sugar uptake kinetics by SR8D8 expressing AtSWEET7. FIG. 7E illustrates sugar uptake kinetics by SR8D8 expressing LST1_205437. Initial xylose uptake (20 s) was measured at 30° C. over a concentration range of 1 to 500 mM xylose. FIG. 7F illustrates sugar uptake kinetics by SR8D8. FIG. 7G illustrates sugar uptake kinetics by SR8D8 expressing AtSWEET1. FIG. 7H illustrates sugar uptake kinetics by SR8D8 expressing ScGal2. FIG. 7I illustrates sugar uptake kinetics by SR8D8 expressing AtSWEET7. FIG. 7J illustrates sugar uptake kinetics by SR8D8 expressing LST1_205437. Initial glucose uptake (5 s) was measured at 30° C. over a concentration range of 0.2 to 100 mM glucose. Curve fitting for Michaelis-Menten kinetics was applied to data of three independent measurements at each concentration.
A xylose fermenting S. cerevisiae yeast (SR8) with HXT1-7Δ, GAL2Δ deletions was used for transporter screening and characterization (SR8D8). SR8D8 was grown in YPE medium/plate (10 g/L yeast extract, 20 g/L peptone, and 5 g/L ethanol). […] Biomass was calculated from the OD600 measured using a Biomate 5 UV-visible spectrophotometer (Fisher, NY, USA). All growth rates were measured using a Bioscreen C plate reader system (Growth Curves USA, Piscataway, NJ, USA). […]
SR8D8 containing the respective plasmid was grown on selective YPE medium to an OD600 of 1-1.5, harvested by centrifugation, and washed twice in ice-cold uptake buffer (100 mM potassium phosphate, pH 6.5). […] Radioactivity was analyzed in a Beckman-Coulter LS6500 multi-purpose liquid scintillation counter (Beckman-Coulter, CA, USA).
Uptake was measured at sugar concentrations 0.2, 1, 5, 25, and 100 mM for glucose and 1, 5, 25, 66, 100, 200, and 500 mM for xylose. Inhibition of xylose uptake by glucose was measured at 25, 66, and 100 mM xylose with additional 25 and 100 mM unlabeled glucose.

[2] = biological target: T2, Lipomyces starkeyi LST1_205437 transporter, wild type, SEQ ID NO: 4 (Lipomyces starkeyi, UniProt A0A1E3QE37); assay: Inhibition of xylose uptake by glucose, SR8D8 expressing LST1_205437; assay type: cell-based; details: 25 mM or 100 mM glucose; in words
T2 construct: whole-cell 14C sugar uptake
T2 sequence (A0A1E3QE37 1-603): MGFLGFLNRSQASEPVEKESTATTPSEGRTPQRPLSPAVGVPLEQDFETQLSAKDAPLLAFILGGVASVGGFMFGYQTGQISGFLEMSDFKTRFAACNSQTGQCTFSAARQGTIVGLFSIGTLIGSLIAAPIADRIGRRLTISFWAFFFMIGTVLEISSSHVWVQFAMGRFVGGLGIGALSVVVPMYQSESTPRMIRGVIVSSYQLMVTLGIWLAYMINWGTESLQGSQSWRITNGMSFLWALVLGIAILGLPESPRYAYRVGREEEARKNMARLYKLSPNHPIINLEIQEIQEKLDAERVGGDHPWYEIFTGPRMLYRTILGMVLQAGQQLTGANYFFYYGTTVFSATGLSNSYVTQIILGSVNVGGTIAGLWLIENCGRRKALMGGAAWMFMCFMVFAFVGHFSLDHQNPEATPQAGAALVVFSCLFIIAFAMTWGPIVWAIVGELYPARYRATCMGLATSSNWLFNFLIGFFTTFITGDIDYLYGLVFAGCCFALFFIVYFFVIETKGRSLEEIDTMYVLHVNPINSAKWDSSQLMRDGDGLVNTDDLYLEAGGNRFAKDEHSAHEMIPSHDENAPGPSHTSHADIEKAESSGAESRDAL
Description: Symbols: glucose (square), xylose (triangle up), DCW (circle), ethanol (triangle down), glycerol (diamond). […] Global curve fitting for Michaelis-Menten kinetics with competitive inhibition was applied to data of three independent measurements at each concentration.
SR8D8 containing the respective plasmid was grown on selective YPE medium to an OD600 of 1-1.5, harvested by centrifugation, and washed twice in ice-cold uptake buffer (100 mM potassium phosphate, pH 6.5). C14 labeled sugar uptake assay was done according to Boles and Oreb. Radioactivity was analyzed in a Beckman-Coulter LS6500 multi-purpose liquid scintillation counter (Beckman-Coulter, CA, USA).
Sugar solutions contained 0.135-0.608 μCi of D-[U-^14C]-glucose (290-300 mCi/mmol) or D-[1-^14C]-xylose (55 mCi/mmol) (PerkinElmer, MA, USA). Calculation of Km (Michaelis constant), Vmax (maximal initial uptake velocity), and K (inhibitor constant for competitive inhibition) was done by nonlinear regression analysis and global curve fitting in Prism 7 (GraphPad Software) with values of three independent measurements.

In the case of `OC[C@H]1OC(O)[C@H](O)[C@@H](O)[C@@H]1O` (stereo partly drawn) [Glucose], the “Vmax (glucose)” value [1] is reported as 38.33 nmol/min/mg, the “Vmax (glucose)” value ([1]; cell wet weight, ± SEM) is reported as 38.3 ± 1.4 nmol/min/mg and the “inhibition of xylose transport by glucose” value [2] is reported as “less inhibited by glucose than those by ScGal2; also recorded: glucose concentration dependent inhibition of xylose transport”.
